In paper PMC9516332 (Frontiers in Oncology, 2022) one finds inhibition data, which are given here for 8 compounds.

Common to all, as to test: Kinase panel profiling at 1 µmol/L (MSA or IMAP), percentage inhibition
Common to all, as to type: biochemical

Experiment [1] addresses panel of 255 wild-type kinases (Homo sapiens, UniProt P09769). The note with it: kinase FGR; 1 µmol/L single concentration; read-out: %-inhibition at 1 µmol/L, FGR.
Experiment [2] addresses T1, panel of 255 wild-type kinases (Homo sapiens, UniProt O15146).
T1 sequence (O15146 24-869): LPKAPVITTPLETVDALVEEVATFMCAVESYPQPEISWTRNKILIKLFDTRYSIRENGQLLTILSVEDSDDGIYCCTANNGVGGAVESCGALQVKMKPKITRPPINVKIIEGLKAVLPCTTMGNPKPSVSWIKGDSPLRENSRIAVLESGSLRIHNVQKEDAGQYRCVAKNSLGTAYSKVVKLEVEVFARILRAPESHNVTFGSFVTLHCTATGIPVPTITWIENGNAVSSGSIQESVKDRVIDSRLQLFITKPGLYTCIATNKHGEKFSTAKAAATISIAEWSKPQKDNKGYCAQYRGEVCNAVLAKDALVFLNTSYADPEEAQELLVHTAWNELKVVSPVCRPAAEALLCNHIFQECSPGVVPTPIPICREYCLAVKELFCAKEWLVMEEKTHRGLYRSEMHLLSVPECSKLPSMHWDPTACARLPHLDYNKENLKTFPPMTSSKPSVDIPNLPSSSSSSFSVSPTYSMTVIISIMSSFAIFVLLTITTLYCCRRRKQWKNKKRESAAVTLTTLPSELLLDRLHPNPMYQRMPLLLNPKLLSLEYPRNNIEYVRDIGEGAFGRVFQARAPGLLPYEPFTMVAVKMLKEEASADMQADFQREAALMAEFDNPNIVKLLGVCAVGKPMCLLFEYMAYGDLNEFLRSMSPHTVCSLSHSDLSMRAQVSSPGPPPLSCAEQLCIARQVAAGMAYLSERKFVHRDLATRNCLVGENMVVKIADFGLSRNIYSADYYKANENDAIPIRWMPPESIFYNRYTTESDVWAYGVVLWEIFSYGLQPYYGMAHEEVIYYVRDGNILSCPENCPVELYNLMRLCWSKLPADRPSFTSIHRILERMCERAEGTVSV
The note with it: MUSK; 1 µmol/L single concentration; read-out: %-inhibition, MUSK.

Experiment [3] concerns the target T2, panel of 255 wild-type kinases (Homo sapiens, UniProt Q9NRM7).
T2 sequence (Q9NRM7 1-1088): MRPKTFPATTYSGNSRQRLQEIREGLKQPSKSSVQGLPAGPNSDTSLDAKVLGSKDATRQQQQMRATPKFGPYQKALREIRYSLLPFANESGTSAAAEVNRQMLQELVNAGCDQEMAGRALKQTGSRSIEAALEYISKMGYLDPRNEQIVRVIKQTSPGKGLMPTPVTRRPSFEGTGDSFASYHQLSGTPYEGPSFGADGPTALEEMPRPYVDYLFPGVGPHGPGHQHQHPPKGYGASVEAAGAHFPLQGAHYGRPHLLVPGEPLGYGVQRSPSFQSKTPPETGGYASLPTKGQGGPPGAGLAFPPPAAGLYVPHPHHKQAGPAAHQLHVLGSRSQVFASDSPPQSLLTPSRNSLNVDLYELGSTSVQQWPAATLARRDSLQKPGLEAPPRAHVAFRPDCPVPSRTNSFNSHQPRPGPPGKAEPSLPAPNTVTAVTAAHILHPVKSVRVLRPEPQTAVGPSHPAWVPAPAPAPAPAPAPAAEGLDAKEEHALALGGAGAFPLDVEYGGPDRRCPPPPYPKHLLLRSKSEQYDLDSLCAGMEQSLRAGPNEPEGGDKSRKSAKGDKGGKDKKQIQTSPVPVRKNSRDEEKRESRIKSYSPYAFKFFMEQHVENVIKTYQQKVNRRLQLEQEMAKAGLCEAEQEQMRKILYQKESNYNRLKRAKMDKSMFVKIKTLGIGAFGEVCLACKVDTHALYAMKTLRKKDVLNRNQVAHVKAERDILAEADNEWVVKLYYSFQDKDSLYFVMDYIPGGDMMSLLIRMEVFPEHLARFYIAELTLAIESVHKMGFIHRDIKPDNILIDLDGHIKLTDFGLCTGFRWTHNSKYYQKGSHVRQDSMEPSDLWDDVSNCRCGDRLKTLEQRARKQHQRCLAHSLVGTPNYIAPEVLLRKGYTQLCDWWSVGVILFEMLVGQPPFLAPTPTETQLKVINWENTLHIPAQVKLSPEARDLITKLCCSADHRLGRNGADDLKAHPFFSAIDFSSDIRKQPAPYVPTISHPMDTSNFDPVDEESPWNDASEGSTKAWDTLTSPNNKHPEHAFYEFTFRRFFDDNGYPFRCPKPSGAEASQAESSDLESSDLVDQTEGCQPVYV
The note with it: kinase LATS2; 1 µmol/L single concentration; read-out: %-inhibition at 1 µmol/L, LATS2.

Experiment [4] concerns the target T3, panel of 255 wild-type kinases (Homo sapiens, UniProt O15530).
T3 sequence (O15530 1-556): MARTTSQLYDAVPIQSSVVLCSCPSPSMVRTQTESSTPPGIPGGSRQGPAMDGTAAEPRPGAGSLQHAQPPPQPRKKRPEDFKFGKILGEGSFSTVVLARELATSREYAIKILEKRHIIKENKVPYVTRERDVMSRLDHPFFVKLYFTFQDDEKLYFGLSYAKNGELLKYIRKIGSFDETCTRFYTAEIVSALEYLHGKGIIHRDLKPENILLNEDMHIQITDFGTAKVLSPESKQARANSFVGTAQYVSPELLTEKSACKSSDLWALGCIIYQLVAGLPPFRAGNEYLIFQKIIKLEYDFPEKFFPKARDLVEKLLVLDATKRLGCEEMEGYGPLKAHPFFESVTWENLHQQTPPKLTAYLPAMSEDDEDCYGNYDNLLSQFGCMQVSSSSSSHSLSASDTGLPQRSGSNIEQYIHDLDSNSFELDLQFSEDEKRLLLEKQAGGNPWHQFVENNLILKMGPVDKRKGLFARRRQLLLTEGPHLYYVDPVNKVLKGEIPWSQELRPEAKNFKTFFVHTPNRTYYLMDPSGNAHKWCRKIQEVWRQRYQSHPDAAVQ
The note with it: kinase PDK1; 1 µmol/L single concentration; read-out: %-inhibition at 1 µmol/L, PDK1.

In experiment [5] the target is panel of 255 wild-type kinases (Homo sapiens, UniProt Q13555). The note with it: CaMK2γ kinase assay; 1 µmol/L single concentration; read-out: %-inhibition CaMK2γ.
Experiment [6] has as its target panel of 255 wild-type kinases (Homo sapiens, UniProt O96013). Conditions: PAK4; 1 µmol/L single concentration; read-out: %-inhibition, PAK4.
The target in experiment [7] is panel of 255 wild-type kinases (Homo sapiens, UniProt P53779). The note with it: kinase JNK3; 1 µmol/L single concentration; read-out: %-inhibition at 1 µmol/L, JNK3.

Turning to `CCN1C(=O)N(c2c(F)c(OC)cc(OC)c2F)Cc2cnc3[nH]c(CN4CCOCC4)cc3c21` [pemigatinib], the inhibition at 1 µM in experiment [1] is 17%; in experiment [2], 2.72%; in experiment [3] it was -3%; in experiment [4], 0.293%; in experiment [5] it was 5%; in experiment [6] it was -1.88%. The inhibition at 1 µM in experiment [7] is -7%.

Regarding `FC(F)(F)c1ccc(CNc2ccc(Cc3c[nH]c4ncc(Cl)cc34)cn2)cn1` [pexidartinib], the inhibition at 1 µM in experiment [1] is 5.64%; in experiment [2], 33%; in experiment [3], 4%; in experiment [4] it was -4.67%; in experiment [5], 0.769%; in experiment [6], 11%. Besides, in experiment [7], the inhibition at 1 µM amounted to 0.454%.

Consider `CO[C@]1(C(=O)N[C@@H](C)c2ccc(-n3cc(F)cn3)nc2)CC[C@H](c2nc(C)cc(Nc3cc(C)[nH]n3)n2)CC1` [pralsetinib], for which the inhibition at 1 µM in experiment [1] was 81%; in experiment [2], 73%; in experiment [3] it was 7.44%; in experiment [4], 9%; in experiment [5], -3%; in experiment [6] it was 66%. In addition, the inhibition at 1 µM in experiment [7] is 6%.

As for `CCn1c(=O)c(-c2cc(NC(=O)Nc3ccccc3)c(F)cc2Br)cc2cnc(NC)cc21` [ripretinib], the inhibition at 1 µM in experiment [1] is 50%; in experiment [2] it was 11%; in experiment [3], -0.411%; in experiment [4], -7%; in experiment [5], 0.397%; in experiment [6], 0.34%. Further, the inhibition at 1 µM in experiment [7] was determined as 10%.

With `COc1ccc(CN2C3CC2CN(c2ccc(-c4cc(OCC(C)(C)O)cn5ncc(C#N)c45)cn2)C3)cn1` [selpercatinib], the inhibition at 1 µM was 51% in experiment [1]; 10% in experiment [2]; -5.4% in experiment [3]; 7% in experiment [4]; 0.226% in experiment [5]; 8% in experiment [6]. Besides, in experiment [7], the inhibition at 1 µM was -8.47%.

As to `Cn1cnc2c(F)c(Nc3ccc(Br)cc3Cl)c(C(=O)NOCCO)cc21` [selumetinib], the inhibition at 1 µM was -0.332% in experiment [1]; 7% in experiment [2]; -3.38% in experiment [3]; 2.11% in experiment [4]; -3% in experiment [5]; 4.6% in experiment [6]. In addition, the inhibition at 1 µM in experiment [7] was found to be 2.14%.

Consider `Cc1cc(Nc2ncnc3ccc(NC4=NC(C)(C)CO4)cc23)ccc1Oc1ccn2ncnc2c1` [tucatinib], for which the inhibition at 1 µM in experiment [1] is 6%; in experiment [2], 2.26%; in experiment [3], 0.168%; in experiment [4], 3%; in experiment [5] it was -5%; in experiment [6] it was 5%. Also, the inhibition at 1 µM in experiment [7] is 1.13%.

Turning to `C=CC(=O)N1CCC([C@@H]2CCNc3c(C(N)=O)c(-c4ccc(Oc5ccccc5)cc4)nn32)CC1` [zanubrutinib], the inhibition at 1 µM in experiment [1] is 37%; in experiment [2], -1.31%; in experiment [3], -0.0723%; in experiment [4], 0.547%; in experiment [5] it was 1.6%; in experiment [6] it was -11%. Further, in experiment [7], the inhibition at 1 µM is -8%.
